# In ChEMBL document CHEMBL1201862, “PubChem BioAssay data set” (2004):
#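 96-well plates; 48 h exposure; 5 concentrations. Endpoints by linear interpolation between flanking doses. Not reached: highest tested concentration assigned. Here, GI50 denotes the concentration required for 50% inhibition of growth.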 Calls of active or inactive are those of the source. No stated cut-off is given here; in the data, active = GI50 up to about 1.1 µM and inactive = higher.
# How the values were obtained:
# Experiment in all cases: NCI anticancer screen, dose series, 48 h
# 786-0 = test system: 786-0
# A498 = test system: A498
# A549 = test system: A549
# ACHN = test system: ACHN
# BT-549 = test system: BT-549
# CAKI-1 = test system: CAKI-1
# CCRF-CEM = test system: CCRF-CEM
# COLO 205 = test system: COLO 205
# DU-145 = test system: DU-145
# EKVX = test system: EKVX
# HCC 2998 = test system: HCC 2998
# HCT-116 = test system: HCT-116
# HCT-15 = test system: HCT-15
# HOP-62 = test system: HOP-62
# HOP-92 = test system: HOP-92
# K562 = test system: K562
# KM12 = test system: KM12
# LOX IMVI = test system: LOX IMVI
# M14 = test system: M14
# MCF7 = test system: MCF7
# MDA-MB-231 = test system: MDA-MB-231
# MDA-MB-435 = test system: MDA-MB-435
# MOLT-4 = test system: MOLT-4
# NCI-H226 = test system: NCI-H226
# NCI-H23 = test system: NCI-H23
# NCI-H460 = test system: NCI-H460
# NCI/ADR-RES = test system: NCI/ADR-RES
# OVCAR-3 = test system: OVCAR-3
# OVCAR-4 = test system: OVCAR-4
# OVCAR-5 = test system: OVCAR-5
# PC-3 = test system: PC-3
# RPMI-8226 = test system: RPMI-8226
# RXF 393 = test system: RXF 393
# SF-268 = test system: SF-268
# SF-295 = test system: SF-295
# SF-539 = test system: SF-539
# SK-MEL-28 = test system: SK-MEL-28
# SK-MEL-2 = test system: SK-MEL-2
# SK-MEL-5 = test system: SK-MEL-5
# SK-OV-3 = test system: SK-OV-3
# SNB-19 = test system: SNB-19
# SNB-75 = test system: SNB-75
# SW-620 = test system: SW-620
# T47D = test system: T47D
# TK-10 = test system: TK-10
# U-251 = test system: U-251
# UACC-257 = test system: UACC-257
# UACC-62 = test system: UACC-62
# UO-31 = test system: UO-31
# HL-60 = test system: HL-60
# HT-29 = test system: HT-29
# Hs-578T = test system: Hs-578T
# IGROV-1 = test system: IGROV-1
# Malme-3M = test system: Malme-3M
# NCI-H522 = test system: NCI-H522
# OVCAR-8 = test system: OVCAR-8
# SN12C = test system: SN12C
# SR = test system: SR
structure (smiles),measurement,setting,value
COc1ccc(C2c3c(n(C)c(=O)n(C)c3=O)OC(N(C)C)(N(C)C)C2(F)F)cc1 (configuration not stated),GI50,786-0,> 100 µM (inactive)
same,GI50,A498,> 100 µM (inactive)
same,GI50,A549,> 100 µM (inactive)
same,GI50,ACHN,> 100 µM (inactive)
same,GI50,BT-549,> 100 µM (inactive)
same,GI50,CAKI-1,> 100 µM (inactive)
same,GI50,CCRF-CEM,> 100 µM (inactive)
same,GI50,COLO 205,> 100 µM (inactive)
same,GI50,DU-145,> 100 µM (inactive)
same,GI50,EKVX,> 100 µM (inactive)
same,GI50,HCC 2998,> 100 µM (inactive)
same,GI50,HCT-116,> 100 µM (inactive)
same,GI50,HCT-15,> 100 µM
same,GI50,HOP-62,> 100 µM (inactive)
same,GI50,HOP-92,> 100 µM (inactive)
same,GI50,K562,3.2 µM (inactive)
same,GI50,KM12,> 100 µM (inactive)
same,GI50,LOX IMVI,> 100 µM (inactive)
same,GI50,M14,> 100 µM (inactive)
same,GI50,MCF7,> 100 µM (inactive)
same,GI50,MDA-MB-231,> 100 µM (inactive)
same,GI50,MDA-MB-435,> 100 µM (inactive)
same,GI50,MOLT-4,2.92 µM (inactive)
same,GI50,NCI-H226,> 100 µM (inactive)
same,GI50,NCI-H23,> 100 µM (inactive)
same,GI50,NCI-H460,> 100 µM (inactive)
same,GI50,NCI/ADR-RES,> 100 µM (inactive)
same,GI50,OVCAR-3,> 100 µM (inactive)
same,GI50,OVCAR-4,> 100 µM (inactive)
same,GI50,OVCAR-5,> 100 µM (inactive)
same,GI50,PC-3,> 100 µM (inactive)
same,GI50,RPMI-8226,> 100 µM (inactive)
same,GI50,RXF 393,> 100 µM (inactive)
same,GI50,SF-268,> 100 µM (inactive)
same,GI50,SF-295,> 100 µM (inactive)
same,GI50,SF-539,> 100 µM (inactive)
same,GI50,SK-MEL-28,> 100 µM (inactive)
same,GI50,SK-MEL-2,> 100 µM (inactive)
same,GI50,SK-MEL-5,> 100 µM (inactive)
same,GI50,SK-OV-3,> 100 µM (inactive)
same,GI50,SNB-19,> 100 µM (inactive)
same,GI50,SNB-75,> 100 µM (inactive)
same,GI50,SW-620,> 100 µM (inactive)
same,GI50,T47D,> 100 µM (inactive)
same,GI50,TK-10,> 100 µM (inactive)
same,GI50,U-251,> 100 µM (inactive)
same,GI50,UACC-257,> 100 µM (inactive)
same,GI50,UACC-62,> 100 µM (inactive)
same,GI50,UO-31,> 100 µM (inactive)
Nc1nc(Cl)cc(/N=N\c2ccccc2)n1,GI50,786-0,30.6 µM (inactive)
same,GI50,A498,61.5 µM (inactive)
same,GI50,A549,48.2 µM (inactive)
same,GI50,ACHN,26.6 µM (inactive)
same,GI50,BT-549,72.4 µM (inactive)
same,GI50,CAKI-1,37.6 µM (inactive)
same,GI50,CCRF-CEM,13 µM (inactive)
same,GI50,COLO 205,27.5 µM (inactive)
same,GI50,DU-145,> 100 µM (inactive)
same,GI50,EKVX,37.2 µM (inactive)
same,GI50,HCT-116,16.4 µM (inactive)
same,GI50,HCT-15,12.5 µM
same,GI50,HL-60,6.38 µM (inactive)
same,GI50,HOP-62,24.1 µM (inactive)
same,GI50,HOP-92,2.33 µM (inactive)
same,GI50,HT-29,31.3 µM (inactive)
same,GI50,Hs-578T,35.9 µM (inactive)
same,GI50,IGROV-1,16.6 µM (inactive)
same,GI50,K562,2.14 µM (inactive)
same,GI50,KM12,92.5 µM (inactive)
same,GI50,LOX IMVI,18.5 µM (inactive)
same,GI50,M14,31.8 µM (inactive)
same,GI50,MCF7,48.1 µM (inactive)
same,GI50,MDA-MB-231,22.1 µM (inactive)
same,GI50,MDA-MB-435,> 100 µM (inactive)
same,GI50,MOLT-4,18.5 µM (inactive)
same,GI50,Malme-3M,83.8 µM (inactive)
same,GI50,NCI-H226,45.2 µM (inactive)
same,GI50,NCI-H23,21 µM (inactive)
same,GI50,NCI-H522,30.6 µM (inactive)
same,GI50,NCI/ADR-RES,39.8 µM (inactive)
same,GI50,OVCAR-3,11.7 µM (inactive)
same,GI50,OVCAR-5,72.1 µM (inactive)
same,GI50,OVCAR-8,33.2 µM (inactive)
same,GI50,RPMI-8226,20.7 µM (inactive)
same,GI50,RXF 393,30.3 µM (inactive)
same,GI50,SF-268,29.5 µM (inactive)
same,GI50,SF-295,30.7 µM (inactive)
same,GI50,SF-539,78.9 µM (inactive)
same,GI50,SK-MEL-28,> 100 µM (inactive)
same,GI50,SK-MEL-2,20.8 µM (inactive)
same,GI50,SK-MEL-5,15.8 µM (inactive)
same,GI50,SK-OV-3,66.1 µM (inactive)
same,GI50,SN12C,43 µM (inactive)
same,GI50,SNB-19,45.8 µM (inactive)
same,GI50,SNB-75,38.7 µM (inactive)
same,GI50,SR,9.79 µM (inactive)
same,GI50,SW-620,> 100 µM (inactive)
same,GI50,T47D,32.6 µM (inactive)
same,GI50,TK-10,61.2 µM (inactive)
same,GI50,UACC-257,36.1 µM (inactive)
same,GI50,UACC-62,28.2 µM (inactive)
same,GI50,UO-31,42.1 µM (inactive)
